Test results reported in PMC8397425, “A Strategy to Conjugate Bioactive Fragments to Cytotoxic Diiron Bis(cyclopentadienyl) Complexes” (Organometallics, 2021).
“And” between values parts separate entries of the source, which are not always exact repeats. Identical values can stand only once.

How the values were obtained:
[1] = tested on: Human Embryonic Kidney 293T (HEK 293T) cell line; assay: MTT cytotoxicity, HEK 293T; assay type: cell-based; conditions: 72 h exposure, mean ± SD
Source text: (§1) Human ovarian carcinoma (A2780 and A2780cisR) cell lines were obtained from the European Collection of Cell Cultures. The Human Embryonic Kidney 293T (HEK 293T) cell line was obtained from the ATCC (Sigma, Buchs, Switzerland). Penicillin–streptomycin, RPMI 1640 GlutaMAX (where RPMI = Roswell Park Memorial Institute), and DMEM GlutaMAX media (where DMEM = Dulbecco’s modified Eagle medium) were obtained from Life Technologies, and fetal bovine serum (FBS) was obtained from Sigma. The cells were cultured in RPMI 1640 GlutaMAX (A2780 and A2780cisR) and DMEM GlutaMAX (HEK 293T) media containing 10% heat-inactivated FBS and 1% penicillin–streptomycin at 37 °C and CO2 (5%). The A2780cisR cell line was routinely treated with cisplatin (2 μM) in the media to maintain cisplatin resistance. The cytotoxicity was determined using the 3-(4,5-dimethyl-2-thiazolyl)-2,5-diphenyl-2H-tetrazolium bromide (MTT) assay.[42] Cells were seeded in flat-bottomed 96-well plates as a suspension in a prepared medium (100 μL aliquots and approximately 4300 cells/well) and preincubated for 24 h. Stock solutions of compounds were prepared in DMSO and were diluted in the medium. The solutions were sequentially diluted to give a final DMSO concentration of 0.5% and a final compound concentration range of 0–200 μM. Cisplatin was tested as a positive (0–100 μM) control. The compounds were placed in the preincubated 96-well plates in 100 μL aliquots, and the plates were incubated for a further 72 h. MTT (20 μL, 5 mg/mL in Dulbecco’s phosphate buffered saline) was placed in the cells, and the plates were incubated for a further 4 h. The culture medium was aspirated, and the purple formazan crystals, formed by the mitochondrial dehydrogenase activity of vital cells, were dissolved in DMSO (100 μL/well). The absorbance of the resulting solutions, directly proportional to the number of surviving cells, was quantified at 590 nm using a SpectroMax M5e multimode microplate reader (using SoftMax Pro software, version 6.2.2). The percentage of surviving cells was calculated from the absorbance of wells corresponding to the untreated control cells. The reported IC50 values are based on the means from two independent experiments, each comprising four tests per concentration level.

[2] = tested on: Human Ovarian Carcinoma (A2780) cell line; assay: MTT cytotoxicity, A2780; assay type: cell-based; conditions: for IC50: 72 h exposure, MTT, mean ± SD
Source text: as §1

[3] = Octanol–water partition coefficient (shake-flask, UV–vis); assay type: physicochemical; conditions: T = 21 °C
Experimental: The solubility of the complexes in D2O was assessed using ^1H NMR spectroscopy (see Table 1 and the Experimental Section for details). […] Data from the literature for the related nonfunctionalized complexes [2′,3′]CF3SO3 are compiled in Table 1 for comparison.[11] The octanol–water partition coefficients (Log Pow) were measured using a UV–vis method and fall within the −0.2 to +1.2 range (Table 1). […] For instance, Log Pow values of 1.07 and 0.65 are obtained for the geometric isomers [9]CF3SO3 and [10]CF3SO3, respectively. […]
Determination of partition coefficients (Log P ow)
Partition coefficients ( Pow; IUPAC: K D partition constant, 7,8 defined as Pow = corg/caq, where corg and caq are the molar concentrations of the selected compound in the organic and aqueous phases, respectively, were determined by the shake-flask method and UV-Vis measurements. 9 Values of Log Pow for diiron complexes are compiled in Table 2. All the operations were carried out at 21±1 °C. De -ionised water and 1-octanol were mixed and vigorously stirred for 24 hours at room temperature to allow saturation of both phases, then separated by centrifugation and used for the following experiments. A solution of the selected Fe compound in the organic phase (V = 5 mL) was prepared and its UV-Vis spectrum was recorded. An aliquot of the solution (Vorg = 1.5 mL) was then transferred into a test tube and the aqueous phase (Vorg = Vaq = 1.5 mL) was added. The mixture was vigorously stirred for 20 minutes and the resulting emulsion was centrifuged (5000 rpm, 10’). […]
the organic phase was recorded. The procedure was repeated three times for each compound. The partition coefficient was then calculated as PPow = AorgA0,org − Aorg, where A0,org and Aorg are the absorbance values in the organic phase, respectively before and after mixing with the aqueous phase. 9 UV-Vis measurements were carried out using 1 cm PMMA cuvettes. The wavelength of the maximum absorption of each compound was used for UV-Vis quantification.

A2780 cells = assay: Intracellular ROS production, DCFH-DA assay; assay type: cell-based, human; conditions: for ROS production compared to H2O2 positive control: 10 μM compound vs H2O2 100 μM, 24 h; for intracellular ROS levels: 10 μM, up to 24 h, DCFH-DA fluorescence
Experimental: In order to shed light on the possible mechanism of action of the biofunctionalized diiron complexes, a series of complementary studies were performed. It was previously shown that the diiron vinyliminium structural motif induces ROS production, possibly associated with more than one mechanism: (1) monoelectron reduction of the complex favored by its net cationic charge; (2) fragmentation into a monoiron derivative and atomic iron; […] After overnight incubation, the cells were treated following the manufacturer’s protocol. […] Stock solutions of compounds were prepared as described above; cells incubated with equal amounts of DMSO in supplemented RPMI were used as a control. The fluorescence was measured up to 24 h with an excitation wavelength of 485 nm and with a 535 nm emission filter by Multilabel Counter (PerkinElmer, Waltham, MA, USA). The measurements were performed in triplicate, and results were reported as mean ± SD. Statistical differences were examined using one-way analysis of variance (ANOVA), and a Tukey test was used for post hoc analysis.

Log Pow [3] | Substance | IC50 [1] | IC50 [2] | selectivity (SI) ([2]; HEK 293T relative to A2780) | ROS production compared to H2O2 positive control (A2780 cells) | intracellular ROS levels (A2780 cells)
1.07 and 1.07 ± 0.05 | [Fe2Cp2(CO)(μ-CO){μ-η^1:η^3-Cγ(3-C6H4NHC(=O)(CH2)3C6H4N(CH2CH2Cl)2)CβHCαNMe2}]CF3SO3 [[9]CF3SO3] | 9 ± 3 µM | 1.8 ± 0.3 µM | 5 | ROS production higher than that recorded for H2O2 | Significant intracellular ROS levels
1.06 ± 0.04 | [Fe2Cp2(CO)(μ-CO){μ-η^1:η^3-Cγ(3-C6H4OC(=O)C6H4OC(=O)Me)CβHCαNMe(Xyl)}]CF3SO3 [[4]CF3SO3] | 3.8 ± 0.7 µM | 2.8 ± 0.4 µM |  | ROS production higher than that recorded for H2O2 | Significant intracellular ROS levels
